Some test systems named below: CAKI-1 renal; M14 melanoma; NCI-H23 lung; OVCAR-5 ovarian; SK-MEL-5 melanoma; SN12C renal; SNB-75 CNS; SW-620 colon; UACC-257 melanoma; UACC-62 melanoma.
Common to all, as to assay: inhibition of tumour cell growth, NCI panel, 48 h

Here are results for 14 compounds from PubChem BioAssay (NCI).

“And” between values parts separate entries of the source, which are not always exact repeats. Equal entries are not always repeated.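 Exposure lasted 48 hours, with cells grown in 96-well plates and compounds tested at five concentrations. Here, GI50 denotes the concentration required for 50% inhibition of growth. TGI denotes the concentration required for complete inhibition of growth.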

Consider `O=c1[nH]c(=O)n(C2OC3COC2C3O)cc1F` (centres undefined), for which the TGI in the test on CAKI-1 renal, in the test on M14 melanoma, in the test with NCI-H23 lung, in the test on OVCAR-5 ovarian, in the test with SK-MEL-5 melanoma and with SN12C renal was above 100 µM in each case. Besides, the TGI with SNB-75 CNS, in the test with SW-620 colon and in the test with UACC-257 melanoma was above 100 µM each time.

As for `COC(=O)CCCCCN=Cc1c(O)c(O)c(C(C)C)c2cc(C)c(-c3c(C)cc4c(C(C)C)c(O)c(O)c(C=NCCCCCC(=O)OC)c4c3O)c(O)c12`, the GI50 with CAKI-1 renal is 6.17 µM; with M14 melanoma, 2.3 µM; with NCI-H23 lung it was 1.32 µM; in the test on SK-MEL-5 melanoma it was 4.46 µM; in the test with SN12C renal, 1.3 µM; in the test on SNB-75 CNS, 2.55 µM. Besides, the GI50 with SW-620 colon is 1.37 µM. Moreover, the TGI in the test on CAKI-1 renal was above 32.5 µM; with M14 melanoma, 25.9 µM; with NCI-H23 lung, above 32.5 µM; in the test on SK-MEL-5 melanoma, 12.6 µM; in the test with SN12C renal, above 32.5 µM; in the test with SNB-75 CNS, above 32.5 µM. This compound also yielded a TGI in the test with SW-620 colon above 32.5 µM.

Regarding `Cc1cc2c(=O)c3ccccc3[nH]c2c(C(=O)O)c1C`, the TGI with CAKI-1 renal, in the test on NCI-H23 lung, with SN12C renal, in the test with SNB-75 CNS, in the test with SW-620 colon and in the test on UACC-257 melanoma was above 100 µM throughout. For the same compound, the TGI in the test with UACC-62 melanoma is above 100 µM.

Take `CCOC(=O)C(=O)Nc1c(C(C)C)cccc1C(C)C`: the TGI in the test on CAKI-1 renal, with M14 melanoma, with NCI-H23 lung, in the test on SK-MEL-5 melanoma, in the test on SN12C renal and in the test with SNB-75 CNS was above 100 µM throughout. Also, the TGI with SW-620 colon, with UACC-257 melanoma and in the test on UACC-62 melanoma was above 100 µM each time.

Consider `CC(=O)O[C@@H]1C2C(=O)OC(=O)C2C2CCC[C@]23O[C@H]13` (some centres undefined), for which the TGI in the test on CAKI-1 renal, in the test with M14 melanoma, in the test on SK-MEL-5 melanoma, with SN12C renal, in the test on SNB-75 CNS and in the test with SW-620 colon was above 100 µM each time. The TGI with UACC-257 melanoma and in the test on UACC-62 melanoma was above 100 µM in each case.

Take `c1cc(CNC2C3CCC(C3)C2c2c[nH]c3ccccc23)cc(CNC2C3CCC(C3)C2c2c[nH]c3ccccc23)c1` (centres undefined): the TGI with M14 melanoma was 5.3 µM; in the test on NCI-H23 lung, 3.34 µM and 2.88 µM; in the test on OVCAR-5 ovarian it was 3.39 µM and 3.4 µM; with SK-MEL-5 melanoma, 3.29 µM; in the test with SN12C renal, 31.5 µM; in the test on SNB-75 CNS, 1.21 µM. Moreover, the TGI is above 100 µM in the test with SW-620 colon, 3.82 µM in the test on UACC-257 melanoma and 3.04 µM in the test with UACC-62 melanoma. Besides, the GI50 in the test with NCI-H23 lung was 1.47 µM; in the test with SN12C renal, 14.5 µM; in the test with SW-620 colon, 2.11 µM and 0.386 µM; with UACC-257 melanoma, 2 µM.

As for `O=C1CCC(O)=C1O`, the TGI with CAKI-1 renal, in the test on M14 melanoma, in the test on NCI-H23 lung, in the test with OVCAR-5 ovarian, with SK-MEL-5 melanoma and in the test with SN12C renal was above 100 µM each time. Also, the TGI in the test with SNB-75 CNS, in the test with SW-620 colon and in the test with UACC-62 melanoma was above 100 µM in each case.

With `CCOC(=O)COS(=O)(=O)C(F)(F)F`, the TGI in the test with CAKI-1 renal, in the test with M14 melanoma, in the test on NCI-H23 lung, in the test with OVCAR-5 ovarian, in the test on SK-MEL-5 melanoma and with SN12C renal was above 100 µM in each case. Further, the TGI with SNB-75 CNS, in the test on UACC-257 melanoma and with UACC-62 melanoma was above 100 µM throughout.

Consider `Cc1nn(-c2ccccc2)c(-c2ccccc2[N+](=O)[O-])c1CC#N`, for which the TGI in the test with CAKI-1 renal, with M14 melanoma, in the test on NCI-H23 lung, in the test with OVCAR-5 ovarian, with SK-MEL-5 melanoma and in the test on SN12C renal was above 100 µM throughout. Moreover, the TGI in the test with SNB-75 CNS, in the test with UACC-257 melanoma and with UACC-62 melanoma was above 100 µM throughout.

On to `CC(=O)Nc1ccc(S(=O)(=O)NNC(=O)c2cccnc2Nc2ccc(Cl)cc2)cc1`, for which the GI50 was 9.18 µM in the test on CAKI-1 renal; 11.5 µM in the test with M14 melanoma; 5.68 µM in the test on SK-MEL-5 melanoma; 59.3 µM with SN12C renal; 5.54 µM in the test with SNB-75 CNS; 7.64 µM in the test on SW-620 colon. Further, the figures for the GI50 in the test on UACC-257 melanoma and with UACC-62 melanoma were 89.4 µM and 8.85 µM, respectively. Further, the TGI in the test on CAKI-1 renal, with M14 melanoma, with SK-MEL-5 melanoma, with SN12C renal, with SNB-75 CNS and with SW-620 colon was above 100 µM in each case. Besides, the TGI with UACC-257 melanoma and with UACC-62 melanoma was above 100 µM throughout.

Turning to `S=c1nc(-c2cccnc2)[nH][nH]1`, the TGI with CAKI-1 renal is above 1 µM; in the test with M14 melanoma, above 100 µM; with NCI-H23 lung it was above 100 µM; in the test on OVCAR-5 ovarian it was above 100 µM; in the test with SK-MEL-5 melanoma, above 100 µM; in the test on SN12C renal, above 100 µM. In addition, the TGI in the test with SNB-75 CNS, with SW-620 colon and in the test on UACC-257 melanoma was above 100 µM each time.

As for `C=C1C(=O)OC2/C=C(\C=O)CC/C=C(\C)C(O)C[C@@H]12` (some centres undefined), the TGI with M14 melanoma was found to be 12.4 µM; in the test on NCI-H23 lung, 17.7 µM; in the test with OVCAR-5 ovarian, 38.2 µM; in the test on SK-MEL-5 melanoma it was 22.4 µM; in the test with SN12C renal, 14.5 µM; in the test with SNB-75 CNS, 29 µM. Also, the TGI was 10.9 µM with SW-620 colon, 18 µM in the test with UACC-257 melanoma and 18.5 µM in the test on UACC-62 melanoma.

For `N#CC(NNC(=O)c1ccccc1O)c1cccc(O)c1` (centres undefined), the TGI in the test with CAKI-1 renal was above 100 µM; in the test on M14 melanoma it was above 100 µM; in the test on NCI-H23 lung it was 21.3 µM; in the test on OVCAR-5 ovarian, above 100 µM; in the test on SK-MEL-5 melanoma it was above 100 µM; with SN12C renal, above 100 µM. In addition, the TGI in the test with SNB-75 CNS, in the test on SW-620 colon and in the test on UACC-257 melanoma was above 100 µM in each case.

With `C[N+]1(C)C/C(=C\c2ccncc2)C(=O)/C(=C/c2ccncc2)C1`, the TGI in the test with CAKI-1 renal, in the test on M14 melanoma, with OVCAR-5 ovarian, in the test on SK-MEL-5 melanoma, in the test on SN12C renal and with SNB-75 CNS was above 100 µM each time. Moreover, the TGI in the test with SW-620 colon, in the test with UACC-257 melanoma and in the test on UACC-62 melanoma was above 100 µM in each case.
